Source: patent publication US10722480B2, “Agent for controlling cells constituting cancer microenvironment or inflammatory microenvironment” (The University of Tokyo, priority 2015, dated 2020)

How the values were obtained:
[1] = system: infiltrating cells in the peritoneum (macrophages, neutrophils); experiment: In vivo chemotaxis assay (thioglycolate peritonitis); set-up: species or system mouse; details: wild-type mice
Experimental: Peritonitis was induced by intraperitoneal administration of 2 mL of 4% thioglycolate medium (Difco) to each of FNT^flox/flox mice and FNT-cKO mice. Infiltrating cells in the peritoneum were collected by injecting 5 mL of ice-cold PBS into the abdominal cavity and giving a gentle massage. The collected cells was washed with PBS containing 0.1% FBS, and then subjected to flow cytometry analysis to investigate the cell number and the cell populations. The same treatment as in the above-described section 8 was carried out on wild-type mice to induce peritonitis, and infiltrating cells in the peritoneum were collected. After washing the collected cells, flow cytometry analysis was carried out to investigate the cell number and the cell populations. For evaluation of disulfiram, disulfiram was dissolved in DMSO, and then diluted in 2% Tween 80-containing physiological saline to each concentration shown in the figure. Each resulting disulfiram solution was administered to mice 1 day before and 30 minutes before the administration of thioglycolate.

[2] = system: macrophages in tumor sites; experiment: Macrophage accumulation in tumor sites (lung metastasis model); assay type: in vivo, mouse; details: wild-type mice, vs solvent
Experimental: Lung cells of the lung metastasis model of wild-type mice described in the section 4 above or lung cells of the lung metastasis model of FNT-cKO mice and FNT^flox/flox mice described in the section 7(2) above were obtained from the right lower lobe by digestion with collagenase and DNase. The cells were washed with PBS supplemented with 2% fetal bovine serum, resuspended, and filtered through a 70-μm strainer. The Fc receptor was blocked by incubation with an anti-mouse CD16/32 antibody (BD biosciences), and thereafter the cells were stained with a fluorescently labeled antibody. Anti-mouse CD11b-Brilliant Violet 510, anti-mouse Ly6C-APC-Cy7, and anti-mouse Ly6G-Alexa Fluor 700 were purchased from Biolegend. The stained cells were analyzed using the Gallios flow cytometer (Beckman coulter). Each mouse was perfused with PBS, and the left lung was isolated. Optimal Cutting Temperature Compound (OCT) (Sakura Finetek) was injected from the trachea to embed the lung in OCT, and the lung was then frozen in liquid nitrogen. Fresh frozen sections with a thickness of 8 μm were prepared, and fixed with 4% paraformaldehyde-PBS. […] Fluorescence Images were obtained with an SP5 confocal microscope (Leica Microsystems).

[3] = system: LLC tumor; experiment: Combined use with anti-PD-1 antibody, LLC tumor-bearing model; assay type: in vivo, mouse; details: DSF in feed from Day 4, anti-PD-1 antibody 0.2 mg i.p. x4
Experimental: To provide an example of combined use of an anticancer drug and disulfiram (DSF), the effect of combined use of an anti-PD-1 antibody, which is an anticancer drug targeting an immune checkpoint molecule, and DSF was studied using an LLC tumor-bearing model and a B16 tumor-bearing model. The B16 tumor-bearing model was prepared by transplanting 5×10^5 B16 melanoma cells to the right abdomen of each of wild-type C57BL/6 mice. Preparation of the LLC tumor-bearing model was carried out in the same manner as in the above-described section 3. A feed supplemented with DSF was provided in the same manner as in the above-described section 3.
The day of the transplantation of the tumor cells to the mice was defined as Day 0. From Day 4, the mice were fed with the feed supplemented with DSF or a control feed every day during the experimental period. An anti-PD-1 antibody (J43, manufactured by BioXcell) was intraperitoneally administered once at a dose of 0.2 mg on each of Day 5, Day 8, Day 14, and Day 18 (four times in total). To provide a control for the antibody administration, PBS was intraperitoneally administered. The tumor size was measured using a caliper twice a week, and the tumor volume was calculated.

[4] = target: p53-MDM2 interaction (Homo sapiens, UniProt Q00987); experiment: HTRF binding inhibition assay, p53-MDM2 control interaction
From the text: By the same HTRF assay as described above, the abilities of disulfiram to inhibit the FROUNT-CCR2 interaction or the FROUNT-CCR5 interaction were investigated. As the CCR5 pro-C peptide, the 16 residues […] (SEQ ID NO:4) in the C-terminal region of CCR5 was used. As a control, the p53-MDM2 interaction (which is inhibited by an MDM-2-specific inhibitor Nutlin), which is also a helix peptide-protein interaction like the interaction between FROUNT and CCR2 or CCR5 but is not related thereto, was used.

[5] = system: B16F10 melanoma cells; experiment: LDH cytotoxicity assay, B16F10 melanoma cells; assay type: cell-based; details: LDH release, 72 hours
Experimental: (§1) The cytotoxicity of inhibitors was tested by using LDH Cytotoxicity Detection Kit (TaKaRa) according to the manufacturer's instructions. Briefly, tumor cells were cultured in the presence or absence of an agent (disulfiram or 5FU) for 72 hours, and the culture supernatant was then collected and tested for the concentration of lactate dehydrogenase released from damaged cells. For measurement of cell proliferation, cells were incubated in a plate well together with an inhibitor for 48 hours. During the last 30 minutes, WST-1 (Dojindo Laboratories) was added to the culture liquid, and the absorbance of each well was measured at 450 nm versus 650 nm reference using EnVision (PerkinElmer) to detect the formazan level.

[6] = system: LLC tumor cells; experiment: LDH cytotoxicity assay, LLC tumor cells; assay type: cell-based; details: LDH release, 72 hours
Experimental: as §1

p53-MDM2 interaction, sequence (Q00987 whole entry): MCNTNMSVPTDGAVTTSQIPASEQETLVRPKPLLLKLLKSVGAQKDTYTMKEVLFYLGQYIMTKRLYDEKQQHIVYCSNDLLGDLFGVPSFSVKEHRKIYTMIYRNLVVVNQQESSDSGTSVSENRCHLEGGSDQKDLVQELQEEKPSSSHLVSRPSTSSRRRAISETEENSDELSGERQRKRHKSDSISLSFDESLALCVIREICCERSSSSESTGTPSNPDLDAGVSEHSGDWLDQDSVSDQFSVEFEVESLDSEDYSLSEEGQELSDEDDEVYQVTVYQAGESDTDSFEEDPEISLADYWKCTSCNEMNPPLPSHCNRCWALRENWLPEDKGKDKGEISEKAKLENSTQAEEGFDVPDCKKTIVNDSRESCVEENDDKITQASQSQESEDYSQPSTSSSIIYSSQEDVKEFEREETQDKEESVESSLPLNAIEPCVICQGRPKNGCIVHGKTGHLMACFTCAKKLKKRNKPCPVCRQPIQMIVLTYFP

SMILES: CCN(CC)C(=S)SSC(=S)N(CC)CC [DSF, disulfiram]
- infiltration of macrophages into peritoneal inflammatory sites [1]: reduced
- infiltration of neutrophils into peritoneal inflammatory sites [1]: not influenced
- accumulation of macrophages in tumor sites [2]: reduced
- hyperplasia of cancer cells (tumor volume) [3]: inhibited
- IC50 ([4]; p53-MDM2 control interaction): > 1000 nM
- inhibition of p53-MDM2 interaction ([4]; result in words): did not inhibit
- cytotoxic activity on B16F10 melanoma cells [5]: did not show any action
- cytotoxic activity on LLC tumor cells [6]: did not show cytotoxic activity
